Data reported in patent US12215123B2, “Cordycepin-based derivatized compound with anti-tumor effect” (NANJING TECH UNIVERSITY, priority 2022, dated 2025).
Read-outs that look alike come from different tables or passages of the source.

What was measured:
[1] = tested on: gastric cancer cell line BGC-823; assay: MTT proliferation, gastric cancer cell line BGC-823; format: cell-based; conditions: Homo sapiens, read-out: IC50 (μM) in gastric cancer cells, BGC-823
Summary of the method: (§1)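 Tumour cells in exponential growth were trypsinised, seeded at 2 to 4×10^4 cells/mL, cultured 24 hours, then exposed to compounds for 72 hours. MTT was added for 4 hours, formazan dissolved in DMSO and absorbance read at 570 nm. IC50 came from an S curve of inhibition rate against concentration.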

[2] = tested on: small cell lung cancer cell line H69; assay: MTT proliferation, small cell lung cancer cell line H69; format: cell-based; conditions: read-out: IC50 (μM) of compounds in small cell lung cancer cells, H69
Summary of the method: (§2)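 MTT assay: cells seeded at 2 to 4×10^4 cells/mL, grown 24 h, then exposed to compound for 72 h. MTT added for 4 h, formazan dissolved in DMSO and absorbance read at 570 nm; IC50 taken from the S-shaped concentration-inhibition curve.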

[3] = tested on: small cell lung cancer cell line H446; assay: MTT proliferation, small cell lung cancer cell line H446; format: cell-based; conditions: read-out: IC50 (μM) of compounds in small cell lung cancer cells, H446
Summary of the method: as §2

[4] = tested on: wild-type AB-line zebrafish; conditions: 3 dpf to 5 dpf, 35° C.; survival rate>90% and teratogenicity<20%
Experimental: The zebrafish model is a wild-type AB-line zebrafish from College of Biotechnology and Pharmaceutical Engineering, Nanjing Tech University, and is carried out by a natural mating reproduction method, with 30 zebrafish of 2 dpf in each experimental group. The zebrafish is fed in fish culture water at 28° C. (water quality:200 mg of instant sea salt and CaCO3 are added into 1 L of reverse osmosis water with a conductivity of 480 uS/cm to 510 uS/cm, a pH value of 6.9 to 7.2, and a hardness of 53.7 mg/L to 71.6 mg/L), and the feeding management meets the requirements of international AAALAC certification.
240 3 dpf wild-type AB-line zebrafish were randomly selected in an 8-well plate, with 30 zebrafish in each well, and 3 mL of fish culture water in each well, the cordycepin was diluted according to a maximum lethal dose, dissolved in DMSO, and added into each well according to a concentration gradient (the maximum lethal dose was diluted by 100 times, in which 8 concentration gradient values were taken for the experiment), and meanwhile, a normal control group, a solvent control group G (5% glucose) and a solvent control group D (DMSO) were set. During the experiment, the zebrafish in each group were cultured at 35° C., after the zebrafish were treated to be 5 dpf with a sample to be tested, lethal and developmental malformation conditions of the zebrafish in different doses were investigated respectively, and a maximum tolerance dose (MTD) of the sample to be tested to normal zebrafish was determined under a concentration when survival rate>90% and teratogenicity<20%.

[5] = tested on: gastric cancer cell line AGS; assay: MTT proliferation, gastric cancer cell line AGS; format: cell-based; conditions: read-out: IC50 (μM) in gastric cancer cells, AGS
Summary of the method: as §1

[6] = tested on: BGC-823 gastric cancer cells; assay: Mouse transplanted gastric cancer model; format: in vivo, C57BL/6j nude mice; conditions: BGC-823 transplanted mice, intragastric 500 ug/time/animal every day, 18 days; for tumor weight: control 1.73 g
Experimental: The feeding of the mouse model in the drug evaluation follows that: mice are fed and treated in a laminar flow cabinet, with 5 nude mice in each cage, drinking water and feedstuffs are added once every 3 days, and paddings are replaced once a week; a number of mice kept in each cage is no more than 5, the mice in separate cages are kept in groups as far as possible, and the mice should not be kept in a single cage; the animal management must conform to the relevant national standards on animal feeding management, and the behavioral needs of animals should be concerned at the same time to avoid unnecessary stress; the normal physiological and behavioral needs of animals, such as defecation, urination, constant body temperature maintenance, normal activities, posture adjustment and reproduction are met; good ventilation and dry animals are kept; the animals can access to drinking water and food at will, and supplementation, replacement and cleaning operations are easily carried out; a solid and safe environment is provided to avoid accidents of animals, such as escaping or limb trapping in a gap; the animals are avoided from being damaged by sharp edges or protrusions; and the animals are not disturbed during observation.
A mouse transplanted gastric cancer model was established and a drug was evaluated. 2×10^7 BGC-823 gastric cancer cells were suspended in 100 μL of PBS to be inoculated into an anterior chest wall of C57BL/6j nude mice, disinfection was carried out with 75% ethanol, and the most obvious part of apical impulse was touched with hand to inoculate the cells to a left ventricle in a second intercostal space about 3 mm to the left of the sternum. About one week later, when the transplanted tumor reached about 100 mm^3, the mice were randomly divided into five groups, with 10 mice in each group, comprising a control group, a cordycepin group, and compound 16, compound 18 and compound 24 drug groups respectively. The control group was intragastrically administrated with a nutritional agent such as a corn steep liquor and DMSO as a solvent control every day; the cordycepin group was intragastrically administrated with the cordycepin (500 ug/time/animal) every day under configuration with DMSO; and the compound drug groups were intragastrically administrated with the compounds (500 ug/time/animal) every day under configuration with DMSO. The administration was carried out for 18 consecutive days. Changes of gastric tumor sizes in the five groups of mice were observed every two days, the mice were killed after the experiment, blood and corresponding tissue samples were collected, and tumor bodies were immediately photographed and weighed.

[7] = tested on: small cell lung cancer cell line H1048; assay: MTT proliferation, small cell lung cancer cell line H1048; format: cell-based; conditions: read-out: IC50 (μM) of compounds in small cell lung cancer cells, H1048
Summary of the method: as §2

Compound	IC50 ([1]; BGC-823, 72 h)	IC50 ([2]; 72 h)	IC50 ([3]; Homo sapiens, NCI-H446, 72 h)	Maximum tolerance dose (MTD) in zebrafish model [4]	IC50 ([5]; 72 h)	tumor weight, times lower than that of the control group [6]	tumor weight [6]	IC50 ([7]; Homo sapiens, NCI-H1048, 72 h)	IC50 ([1]; MTT, 72 hours, BGC-823)	IC50 ([2]; MTT, 72 hours, H69)	IC50 ([3]; Homo sapiens, NCI-H446, 72 h, MTT, 72 hours, H446)	IC50 ([3]; MTT, 72 hours, H446)	IC50 ([5]; MTT, 72 hours, AGS)	IC50 ([7]; Homo sapiens, NCI-H1048, 72 h, MTT, 72 hours, H1048)	IC50 ([7]; MTT, 72 hours, H1048)
CC(C)OC(=O)C(C)NP(=O)(COC[C@@H]1CC(O)[C@H](n2cnc3c(NC(=O)c4ccncc4)ncnc32)O1)Oc1ccccc1 (stereo partly drawn) [Compound 24, isopropyl((((4-hydroxy-5-(6-(isonicotinamide)-9H-purin-9-yl)tetrahydrofuran-2-yl)methoxy)methyl)(phenoxy)phosphoryl)alanine ester]	0.09 µM	25.5 µM	17.2 µM	5 µM	0.13 µM	about 12 times	0.14 g	24.4 µM	–	–	–	–	–	–	–
Nc1ncnc2c1ncn2[C@@H]1O[C@H](CO)C[C@H]1O [Cordycepin, 3′-deoxyadenosine]	–	–	–	995 µM	–	about 4 times	0.46 g	–	235 µM	63.1 µM	> 100 µM	123 µM	372 µM	> 100 µM	172 µM
